Source: publication PMC9005681, “Use of AD Informer Set compounds to explore validity of novel targets in Alzheimer's disease pathology” (Alzheimer's & Dementia : Translational Research & Clinical …, 2022)
Values joined by “and” are separate entries in the source; they are usually repeats but may differ in a detail not shown here. Equal entries are not always repeated.

Legend:
Test in all cases: PDSP GPCR panel primary binding assays at 10 μM
Conditions in all cases: primary assay
[1] = biological target: T1, cloned human or rodent CNS receptors, channels, and transporters (PDSP panel) (Homo sapiens, UniProt P08908)
T1 construct: expressed in transfected cells
T1 sequence (P08908 1-422): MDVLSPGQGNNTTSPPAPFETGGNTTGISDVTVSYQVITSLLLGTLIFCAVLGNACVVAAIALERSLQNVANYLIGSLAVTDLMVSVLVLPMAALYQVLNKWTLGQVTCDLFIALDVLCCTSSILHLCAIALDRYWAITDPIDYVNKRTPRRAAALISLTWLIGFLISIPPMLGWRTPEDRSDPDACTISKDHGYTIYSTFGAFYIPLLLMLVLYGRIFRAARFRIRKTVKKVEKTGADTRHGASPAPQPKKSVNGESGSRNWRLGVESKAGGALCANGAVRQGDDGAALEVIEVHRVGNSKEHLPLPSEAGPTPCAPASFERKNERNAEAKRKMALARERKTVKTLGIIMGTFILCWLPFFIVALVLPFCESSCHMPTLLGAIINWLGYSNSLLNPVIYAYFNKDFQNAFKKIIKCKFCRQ
Method: (§1) GPCR panel: Screening against the receptors within the PDSP panel offers an assessment of off-target pharmacological activity at cloned human or rodent CNS receptors, channels, and transporters that could confound CNS-related phenotypes. A total of 46–47 primary binding assays were run in quadruplicate on these compounds at 10 μM, with follow-up secondary binding assays in 11-point dose-response in triplicate for select compounds versus select receptors. Secondary binding assays were executed for all receptors where test compound displaced an average of >50% of radio-labeled standard ligand. As an exception, no secondary assays were carried out for H3, PBR, or GABAA. […]

[2] = biological target: T2, cloned human or rodent CNS receptors, channels, and transporters (PDSP panel) (Homo sapiens, UniProt P21728)
T2 construct: expressed in transfected cells
Method: as §1

[3] = biological target: T3, cloned human or rodent CNS receptors, channels, and transporters (PDSP panel) (Homo sapiens, UniProt P21918)
T3 construct: expressed in transfected cells
Method: as §1

[4] = biological target: T4, cloned human or rodent CNS receptors, channels, and transporters (PDSP panel) (Homo sapiens, UniProt P23975)
T4 construct: expressed in transfected cells
Method: as §1

[5] = biological target: T5, cloned human or rodent CNS receptors, channels, and transporters (PDSP panel) (Homo sapiens, UniProt P25100)
T5 construct: expressed in transfected cells
T5 sequence (P25100 1-572): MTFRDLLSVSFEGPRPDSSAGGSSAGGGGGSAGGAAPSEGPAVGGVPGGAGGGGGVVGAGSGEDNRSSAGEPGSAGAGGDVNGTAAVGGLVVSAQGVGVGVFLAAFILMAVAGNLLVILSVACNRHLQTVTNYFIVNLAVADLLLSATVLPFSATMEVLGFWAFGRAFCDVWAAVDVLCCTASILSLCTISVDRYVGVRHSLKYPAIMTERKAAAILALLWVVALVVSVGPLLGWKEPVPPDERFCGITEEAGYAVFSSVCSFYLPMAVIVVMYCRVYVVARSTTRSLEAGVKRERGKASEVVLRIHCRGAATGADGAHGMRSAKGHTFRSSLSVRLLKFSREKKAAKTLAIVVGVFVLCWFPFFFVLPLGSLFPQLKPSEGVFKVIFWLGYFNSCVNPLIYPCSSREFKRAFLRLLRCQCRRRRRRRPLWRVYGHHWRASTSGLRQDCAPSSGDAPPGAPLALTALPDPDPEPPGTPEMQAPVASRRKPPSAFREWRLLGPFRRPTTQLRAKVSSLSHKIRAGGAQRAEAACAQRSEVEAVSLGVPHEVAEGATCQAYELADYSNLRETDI
Method: as §1

[6] = biological target: T6, cloned human or rodent CNS receptors, channels, and transporters (PDSP panel) (Homo sapiens, UniProt P28222)
T6 construct: expressed in transfected cells
Method: as §1

[7] = biological target: T7, cloned human or rodent CNS receptors, channels, and transporters (PDSP panel) (Homo sapiens, UniProt P28335)
T7 construct: expressed in transfected cells
T7 sequence (P28335 33-458): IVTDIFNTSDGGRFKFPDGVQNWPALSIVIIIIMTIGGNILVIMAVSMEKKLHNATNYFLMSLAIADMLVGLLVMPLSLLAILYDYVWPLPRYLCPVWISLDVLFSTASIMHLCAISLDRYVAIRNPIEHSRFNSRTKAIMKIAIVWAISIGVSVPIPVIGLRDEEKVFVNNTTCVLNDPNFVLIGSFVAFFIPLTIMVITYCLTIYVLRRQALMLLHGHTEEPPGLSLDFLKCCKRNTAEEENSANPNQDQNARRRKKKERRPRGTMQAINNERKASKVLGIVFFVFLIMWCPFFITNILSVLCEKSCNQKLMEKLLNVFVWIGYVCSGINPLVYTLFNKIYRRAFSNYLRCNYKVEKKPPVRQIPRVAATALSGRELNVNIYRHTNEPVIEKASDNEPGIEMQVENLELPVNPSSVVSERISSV
Method: as §1

[8] = biological target: T8, cloned human or rodent CNS receptors, channels, and transporters (PDSP panel) (Homo sapiens, UniProt P31645)
T8 construct: expressed in transfected cells
Method: as §1

[9] = biological target: T9, cloned human or rodent CNS receptors, channels, and transporters (PDSP panel) (Homo sapiens, UniProt P41595)
T9 construct: expressed in transfected cells
Method: as §1

T6 sequence (P28222 whole entry): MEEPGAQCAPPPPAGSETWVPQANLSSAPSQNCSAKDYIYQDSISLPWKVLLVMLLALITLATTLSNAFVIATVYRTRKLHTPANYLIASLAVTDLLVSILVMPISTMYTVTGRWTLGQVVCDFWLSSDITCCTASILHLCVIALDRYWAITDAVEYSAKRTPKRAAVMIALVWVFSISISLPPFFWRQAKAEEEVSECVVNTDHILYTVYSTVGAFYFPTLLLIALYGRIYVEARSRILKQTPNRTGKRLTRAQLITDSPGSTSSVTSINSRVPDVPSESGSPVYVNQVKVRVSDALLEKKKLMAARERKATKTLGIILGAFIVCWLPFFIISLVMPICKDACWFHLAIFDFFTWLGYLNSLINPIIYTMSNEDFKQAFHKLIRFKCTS
T2 sequence (P21728 whole entry): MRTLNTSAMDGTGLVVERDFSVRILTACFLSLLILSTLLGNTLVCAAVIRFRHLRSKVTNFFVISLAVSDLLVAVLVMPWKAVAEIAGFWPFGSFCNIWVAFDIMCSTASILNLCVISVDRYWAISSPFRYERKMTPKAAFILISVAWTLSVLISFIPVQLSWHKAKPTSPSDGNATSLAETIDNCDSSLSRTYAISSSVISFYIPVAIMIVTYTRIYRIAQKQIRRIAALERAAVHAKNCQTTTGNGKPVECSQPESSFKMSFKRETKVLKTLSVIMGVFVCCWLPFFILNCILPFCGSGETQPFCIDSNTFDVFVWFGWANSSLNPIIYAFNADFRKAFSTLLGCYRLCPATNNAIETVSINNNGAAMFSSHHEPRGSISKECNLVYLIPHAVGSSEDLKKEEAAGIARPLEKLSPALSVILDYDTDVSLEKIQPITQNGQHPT
T9 sequence (P41595 whole entry): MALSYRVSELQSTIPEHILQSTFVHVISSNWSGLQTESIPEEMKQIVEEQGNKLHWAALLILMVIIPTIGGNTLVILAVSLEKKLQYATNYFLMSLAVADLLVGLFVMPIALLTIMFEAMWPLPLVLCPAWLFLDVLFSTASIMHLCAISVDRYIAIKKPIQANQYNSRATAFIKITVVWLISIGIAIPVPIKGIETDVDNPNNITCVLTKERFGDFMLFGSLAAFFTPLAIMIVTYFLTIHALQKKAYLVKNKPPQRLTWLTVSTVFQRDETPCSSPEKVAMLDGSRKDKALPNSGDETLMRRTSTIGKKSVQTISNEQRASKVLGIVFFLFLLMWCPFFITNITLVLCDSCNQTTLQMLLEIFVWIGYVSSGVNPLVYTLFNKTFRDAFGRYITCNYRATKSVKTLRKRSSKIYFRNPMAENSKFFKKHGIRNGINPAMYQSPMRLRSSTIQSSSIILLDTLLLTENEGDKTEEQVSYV
T8 sequence (P31645 whole entry): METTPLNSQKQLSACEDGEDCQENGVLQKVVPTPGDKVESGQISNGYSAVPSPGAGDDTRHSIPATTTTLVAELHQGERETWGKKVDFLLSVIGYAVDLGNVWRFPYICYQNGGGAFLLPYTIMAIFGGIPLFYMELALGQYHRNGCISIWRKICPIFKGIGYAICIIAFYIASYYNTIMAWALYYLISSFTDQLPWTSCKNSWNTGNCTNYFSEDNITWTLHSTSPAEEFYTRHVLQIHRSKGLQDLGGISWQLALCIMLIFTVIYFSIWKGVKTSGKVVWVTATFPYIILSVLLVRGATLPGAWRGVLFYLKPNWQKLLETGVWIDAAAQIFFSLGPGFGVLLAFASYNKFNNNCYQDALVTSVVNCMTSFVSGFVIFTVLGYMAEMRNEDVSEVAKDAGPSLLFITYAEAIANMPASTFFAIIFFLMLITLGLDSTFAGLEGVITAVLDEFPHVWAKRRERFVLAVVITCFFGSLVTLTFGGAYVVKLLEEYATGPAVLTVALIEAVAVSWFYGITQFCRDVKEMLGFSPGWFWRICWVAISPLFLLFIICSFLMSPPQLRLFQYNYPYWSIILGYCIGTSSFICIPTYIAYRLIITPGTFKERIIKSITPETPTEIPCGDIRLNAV
T3 sequence (P21918 whole entry): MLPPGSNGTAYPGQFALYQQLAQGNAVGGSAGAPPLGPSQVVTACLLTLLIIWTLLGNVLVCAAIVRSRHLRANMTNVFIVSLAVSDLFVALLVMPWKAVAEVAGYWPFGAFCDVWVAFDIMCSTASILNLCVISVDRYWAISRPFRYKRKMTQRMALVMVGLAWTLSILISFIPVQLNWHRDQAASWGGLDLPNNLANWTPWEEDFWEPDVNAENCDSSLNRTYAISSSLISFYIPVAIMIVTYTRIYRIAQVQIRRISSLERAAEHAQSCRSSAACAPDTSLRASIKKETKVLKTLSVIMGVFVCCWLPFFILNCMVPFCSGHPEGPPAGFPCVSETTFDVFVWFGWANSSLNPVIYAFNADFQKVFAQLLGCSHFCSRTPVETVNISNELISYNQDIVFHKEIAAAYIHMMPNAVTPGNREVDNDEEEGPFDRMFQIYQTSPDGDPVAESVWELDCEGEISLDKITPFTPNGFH
T4 sequence (P23975 whole entry): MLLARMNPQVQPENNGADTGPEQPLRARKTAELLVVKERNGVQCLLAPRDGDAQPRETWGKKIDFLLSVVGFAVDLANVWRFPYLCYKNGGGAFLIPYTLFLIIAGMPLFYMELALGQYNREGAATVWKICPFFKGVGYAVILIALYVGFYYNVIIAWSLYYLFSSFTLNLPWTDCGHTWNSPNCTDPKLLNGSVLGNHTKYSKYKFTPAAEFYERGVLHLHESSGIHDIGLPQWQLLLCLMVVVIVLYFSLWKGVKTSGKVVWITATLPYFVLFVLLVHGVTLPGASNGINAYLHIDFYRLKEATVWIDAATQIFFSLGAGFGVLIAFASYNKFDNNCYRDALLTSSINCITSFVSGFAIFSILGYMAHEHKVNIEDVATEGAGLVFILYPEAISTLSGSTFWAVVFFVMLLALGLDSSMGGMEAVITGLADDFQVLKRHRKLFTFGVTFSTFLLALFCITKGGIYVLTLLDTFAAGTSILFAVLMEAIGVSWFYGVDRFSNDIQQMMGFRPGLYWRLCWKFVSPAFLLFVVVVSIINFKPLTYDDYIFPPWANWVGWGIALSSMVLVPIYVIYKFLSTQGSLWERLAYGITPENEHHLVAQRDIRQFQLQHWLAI

## c1cn2cc(-c3ccc4cn[nH]c4c3)nc(Nc3ccc(N4CCOCC4)cc3)c2n1 [UNC10302678A, Entospletinib (GS-9973)]
[1]; Receptor 5-HT1A, 10 μM
  Inhibition 1: 14.91%
  Inhibition 2: -0.95%
  Inhibition 3: -3.19%
  Inhibition 4: 6.29%
[1]; Receptor 5-HT1A, 10 μM, mean of Inhibition 1-4
  Mean %: 4.27%
[2]; Receptor D1, 10 μM
  Inhibition 1: 2.51%
  Inhibition 2: -3%
  Inhibition 3: -32.95%
  Inhibition 4: 7.37%
[2]; Receptor D1, 10 μM, mean of Inhibition 1-4
  Mean %: -6.52%
[3]; Receptor D5, 10 μM
  Inhibition 1: 5.49%
  Inhibition 2: 5.93%
  Inhibition 3: 8.99%
  Inhibition 4: 11.03%
[3]; Receptor D5, 10 μM, mean of Inhibition 1-4
  Mean %: 7.86%
[4]; Receptor NET, 10 μM
  Inhibition 1: -3.87% and -2.7%
  Inhibition 2: -11.22% and -16.36%
  Inhibition 3: -0.44% and -2.13%
[4]; Receptor NET, 10 μM, mean of Inhibition 1-4
  Mean %: 1.02% and -6.36%
[5]; Receptor Alpha1D, 10 μM
  Inhibition 1: -9.56%
  Inhibition 2: -12.54%
  Inhibition 3: -12.26%
  Inhibition 4: -10.27%
[5]; Receptor Alpha1D, 10 μM, mean of Inhibition 1-4
  Mean %: -11.16%
[6]; Receptor 5-HT1B, 10 μM
  Inhibition 1: 21.82%
  Inhibition 2: -6.09%
  Inhibition 3: 2.36%
  Inhibition 4: -8.65%
[6]; Receptor 5-HT1B, 10 μM, mean of Inhibition 1-4
  Mean %: 2.36%
[7]; Receptor 5-HT2C, 10 μM
  Inhibition 1: -15.71%
  Inhibition 2: 5.4%
  Inhibition 3: -17.18%
  Inhibition 4: -19.14%
[7]; Receptor 5-HT2C, 10 μM, mean of Inhibition 1-4
  Mean %: -11.66%
[8]; Receptor SERT, 10 μM
  Inhibition 1: 60.12%
  Inhibition 2: 23.39% and 14.88%
  Inhibition 3: 22.83% and 32.36%
  Inhibition 4: 31.59% and 27.97%
[8]; Receptor SERT, 10 μM, mean of Inhibition 1-4
  Mean %: 34.48% and 22.48%
[9]; Receptor 5-HT2B, 10 μM
  Inhibition 1: 61.2%
  Inhibition 2: 0.79%
  Inhibition 3: -21.45%
  Inhibition 4: 15.05%
[9]; Receptor 5-HT2B, 10 μM, mean of Inhibition 1-4
  Mean %: 13.9%

## MDL 28170 [UNC10302675A]
[1]; 5-HT1A, mean inhibition
  Mean %: 2.42%
[1]; 5-HT1A, replicate 1
  Inhibition 1: 14.05%
[1]; 5-HT1A, replicate 2
  Inhibition 2: 0.78%
[1]; 5-HT1A, replicate 3
  Inhibition 3: -1.81%
[1]; 5-HT1A, replicate 4
  Inhibition 4: -3.36%
[2]; D1, mean inhibition
  Mean %: -0.08%
[2]; D1, replicate 1
  Inhibition 1: 13.68%
[2]; D1, replicate 2
  Inhibition 2: 11.74%
[2]; D1, replicate 3
  Inhibition 3: -15.62%
[2]; D1, replicate 4
  Inhibition 4: -10.12%
[3]; D5, mean inhibition
  Mean %: 3.1%
[3]; D5, replicate 1
  Inhibition 1: 35%
[3]; D5, replicate 2
  Inhibition 2: -0.46%
[3]; D5, replicate 3
  Inhibition 3: -13.75%
[3]; D5, replicate 4
  Inhibition 4: -8.4%
[4]; NET, mean inhibition
  Mean %: 1.5% and 5.58%
[4]; NET, replicate 1
  Inhibition 1: 1.64% and 23.85%
[4]; NET, replicate 2
  Inhibition 2: -18.73% and 10.38%
[4]; NET, replicate 3
  Inhibition 3: -4.59% and 3.46%
[4]; NET, replicate 4
  Inhibition 4: 27.68% and -15.39%
[5]; Alpha1D, mean inhibition
  Mean %: 0.92%
[5]; Alpha1D, replicate 1
  Inhibition 1: 9.77%
[5]; Alpha1D, replicate 2
  Inhibition 2: 7.35%
[5]; Alpha1D, replicate 3
  Inhibition 3: -4.01%
[5]; Alpha1D, replicate 4
  Inhibition 4: -9.41%
[6]; 5-HT1B, mean inhibition
  Mean %: 7.62%
[6]; 5-HT1B, replicate 1
  Inhibition 1: 14.84%
[6]; 5-HT1B, replicate 2
  Inhibition 2: 5.24%
[6]; 5-HT1B, replicate 3
  Inhibition 3: 9.43%
[6]; 5-HT1B, replicate 4
  Inhibition 4: 0.96%
[7]; 5-HT2C, mean inhibition
  Mean %: -9.69%
[7]; 5-HT2C, replicate 1
  Inhibition 1: -16.2%
[7]; 5-HT2C, replicate 2
  Inhibition 2: -15.21%
[7]; 5-HT2C, replicate 3
  Inhibition 3: 9.82%
[7]; 5-HT2C, replicate 4
  Inhibition 4: -17.18%
[8]; SERT, mean inhibition
  Mean %: -4.02% and -0.38%
[8]; SERT, replicate 1
  Inhibition 1: 19.12% and 14.24%
[8]; SERT, replicate 2
  Inhibition 2: -10.98% and 6.75%
[8]; SERT, replicate 3
  Inhibition 3: -20.47% and -17.68%
[8]; SERT, replicate 4
  Inhibition 4: -3.73% and -4.82%
[9]; 5-HT2B, mean inhibition
  Mean %: -23.86%
[9]; 5-HT2B, replicate 1
  Inhibition 1: -2.15%
[9]; 5-HT2B, replicate 2
  Inhibition 2: -34.45%
[9]; 5-HT2B, replicate 3
  Inhibition 3: -28.58%
[9]; 5-HT2B, replicate 4
  Inhibition 4: -30.26%
